Results from patent US20040005649A1, “Anti-stilbene antibodies” (priority 2003, published 2004).

Legend:
[1] = 77° K in hydrophobic solvents and 193° K in glycerol; cited from earlier work
[2] = test system: mAb 19G2; experiment: Binding of stilbene-tethered C-nucleosides to blue-fluorescent mAb 19G2 (fluorescence, crystal soak); design: species or system mice; settings: for emission of mAb 19G2 crystal after soaking: crystal soaked with ligand, UV lamp
Protocol: Each C-nucleoside was tested for the ability to bind to the blue-fluorescent monoclonal antibody (mAb) 19G2. […] Subsequently, we acquired X-ray crystallographic data on both complexes primarily to obtain information regarding positioning of the nucleobase moiety with regard to the protein framework. The structures of the 19G2-9 and 19G2-18 complexes were determined to a resolution of 2.45 Å and 2.20 Å, respectively (Table 4). In both cases, the antibody structures differ by an RMSD of 0.61 Å and 0.50 Å from that of the previously determined 19G2-12 complex. The stilbene portion of both 9 and 18 is clear in 2σ density and could be readily modeled into the density as the trans-isomer. For both complexes, binding site amino acid residues within 5 Å of the stilbene are observed to be in the same conformation as in 19G2-12.
X-ray crystallography. Crystals of mAb 19G2 were soaked overnight with a 0.25 mM solution of either 9 or 18 (DMF stock solutions) in mother liquor from the crystal growth (12% polyethylene glycol, 0.1 M sodium acetate pH 4.75, 0.3 M magnesium chloride) containing 5% DMF. Formation of the complex in the crystal was assayed by the appearance of blue fluorescence from soaked crystals when illuminated by a hand-held UV lamp at 312 nm (Spectronics Corp.; Westbury, N.Y.). The crystals were soaked in a cryobuffer consisting of 20% glycerol, 0.25 mM 9 or 18, mother liquor, and 5% DMF and flash frozen in liquid nitrogen. X-ray diffraction was collected in-house with an FRD X-ray generator and a RAXISIVF^++ detector. Data was processed and scaled using HKL software package. The previously determined structure of the antibody (PDB ID CODE 1FL3) was used as a starting model for refinement. Multiple rounds of rigid body refinement, B-factor refinement, Powell minimization, simulated annealing in CNS and manual rebuilding in O were performed.

[3] = Picosecond time-resolved emission, time-correlated single photon counting; assay type: physicochemical
Protocol: Measurements were obtained with picosecond excitation at 318 nm. Decays were measured at 380 nm (free 2, 16H10 and 25E5 complexes) or 410 nm (19G2 complex) by time-correlated single photon counting. Decays were recorded in 4096 channels with a time increment of 18 ps/channel and were normalized relative to the number of counts recorded in the peak channel. See Table 3 for experimental conditions.
Normalized time-resolved emission profiles of the 20F2-2 complex were recorded at 370 nm (purple) and 480 nm (blue). The solid lines are multiexponential fits to each decay. […] Decays were recorded in 4096 channels with a time increment of 4.9 ps/channel and were normalized relative to the number of counts recorded in the peak channel. See Table 3 for experimental conditions.
Dynamic spectroscopy. Picosecond time-resolved emission spectroscopy was used to further probe the dynamics of blue-fluorescent antibodies. Time-resolved emission decay profiles of free 2 and bound to EP2 mAbs were measured at room temperature by time-correlated single-photon counting (Table 3, FIG. 16).

[4] = Steady-state UV absorption, fluorescence excitation and emission spectra, quantum yield; assay type: physicochemical
Protocol: (A) UV absorption. (B) Fluorescence excitation. Note: The 19G2-2 complex and free 2 each required a separate y-axis scale for side-by-side comparison of peak shapes. (C) Fluorescence emission. See note for (B). In all cases, see Table 2 for experimental conditions. Steady-state excitation and emission spectra were recorded using an SLM 8100 spectrofluorimeter (Spectronics Instruments) with a bandpass of 4 nm for excitation and emission.

[5] = 20 μM mAb, 10 μM of 2 (or free stilbene), PBS pH 7.4, 5% DMF, 20° C
[6] = 20 μM mAb, 10 μM of 2 (or free stilbene), PBS, 5% DMF, 20° C

For `C(=C\c1ccccc1)/c1ccccc1` [compound 1, trans-stilbene], the φf [1] is given as 0.75.

For `O=C(O)CCCC(=O)Nc1ccc(/C=C/c2ccccc2)cc1` [compound 2, 5-oxo-5-[[4-[(1E)-2-phenylethenyl]phenyl]amino]-pentanoic acid], the “quantum yield (φf) of complex with mAb 19G2” value (“quantum yield (φf) of complex” for short) [2] was ~0.80, the “fluorescence decay components, τf” value ([3]; 20 μM mAb, 10 μM of 2 (or free 2), PBS, 5% DMF, 20° C) was 0.071 ns and the “kr (radiative rate constant)” value ([3]; calculated as the inverse of τr) was 0.28 ns^−1. The “τr (radiative lifetime)” value ([3]; calculated from τf and φf) was 3.6 ns, the “knr (nonradiative rate constant)” value ([3]; calculated knr = [kr(1-φf)/φf]) was 14 ns^−1 and the fluorescence lifetime ([3]; free in aqueous buffer, room temperature) was ~70 ps. For the same compound, the λem [4, 5] was 388 nm, the λex [4, 5] was 325 nm and the εmax [4, 6] was 33200 M⁻¹ cm⁻¹. For the same compound, the “φf lower than blue-fluorescent antibody complexes” value ([4]; free 2 in fluid solution) was 30-40 fold, the “φf (fluorescence quantum yield)” value ([4]; reference quinine bisulfate, 20 μM mAb, 10 μM of 2, PBS, 5% DMF, 20° C, accurate to ±10%) was 0.02 and the UV absorption bands ([4]; values in parentheses are shoulders/inflections, 20 μM mAb, 10 μM of 2, PBS, 5% DMF, 20° C) was 320 nm.

With `O=C(CCCC(=O)Nc1ccc(/C=C/c2ccccc2)cc1)NCCc1ccc(C2C[C@H](O)[C@@H](CO)O2)cc1` (stereo partly drawn) [compound 9, N-[2-[4-[2-deoxy-D-erythro-pentofuranosyl]phenyl]ethyl]-N′-[4-[(1E)-2-phenylethenyl]phenyl]-pentanediamide, reference compound] the “quantum yield (φf) of complex” value [2] was “comparable”, the “emission of mAb 19G2 crystal after soaking” value [2] was “blue emission” and the λem [4, 5] was 442 nm. The εmax [4, 6] was 30000 M⁻¹ cm⁻¹.

With `OCC1OC(c2ccc(COCCOCCOCc3ccc(C=Cc4ccccc4)cc3)cc2)CC1O` [compound 18, 1,4-anhydro-2-deoxy-1-C-[4-[[2-[2-[[4-[(1E)-2-phenylethenyl]phenyl]methoxy]ethoxy]ethoxy]methyl]]phenyl]-D-erythro-pentitol] the “quantum yield (φf) of complex” value [2] was “comparable” and the “emission of mAb 19G2 crystal after soaking” value [2] was “blue emission”.
